pIC50: −log10 of the molar value.
test system: TDP-43 aggregation in PC12 cells stably expressing TDP-43^Q331K::eGFP; experiment: In vitro efficacy assay, TDP-43 aggregation concentration-response; type: cell-based; conditions: Rattus norvegicus, PC-12, inhibition of TDP-43 aggregation; PC12 TDP-43^Q331K::eGFP, 1 hour pre-treatment, 15 μM sodium arsenite for 23 hours; 10-point dose response
Procedure: Exemplary compounds of the invention were evaluated for efficacy in inhibiting TDP-43 inclusions using a concentration-response assay. Briefly, PC12 cells stably expressing a GFP-tagged mutant form of TDP-43 (TDP-43^Q331K::eGFP) were pre-treated for 1 hour with exemplary compounds and stressed with 15 μM sodium arsenite for 23 hours to induce TDP-43 aggregation. The inhibitory effect on TDP-43 aggregation was measured using fluorescence microscopy. The ratio of cells with TDP-43 aggregates was calculated based on the total number of cells with detectable GFP expression.

Compound	pIC50
CCN(CC1CCCN(CCc2cccc(OC)c2)C1)C(=O)c1nc2ccccc2o1 (centres unmarked) [Compound 241]	< 5.00
CCN(CC1CCCNC1)C(=O)c1cc2cc(F)ccc2[nH]1 (centres unmarked) [compound 414]	< 5.00
CCN(CC1CCCN(CCc2cccc(OC)c2)C1)C(=O)c1n[nH]c2ccccc12 (centres unmarked) [Compound 249]	> 5.82
CCN(CC1CCCNC1)C(=O)c1cc2cc(OCc3ccccc3)ccc2[nH]1 (centres unmarked) [compound 424]	5.15 to 5.40
COc1cccc(CCN2CCCC(CNC(=O)c3cc4ccccc4[nH]3)C2)c1 (centres unmarked) [Compound 125]	> 5.82
CCN(CC1CCCN(CCc2cccc(OC)c2)C1)C(=O)c1nc2ccccc2[nH]1 (centres unmarked) [Compound 230]	> 5.82
CCN(CC1CCCN(Cc2ccc(OC)cc2)C1)C(=O)c1cc2c(F)cc(F)cc2[nH]1 (centres unmarked) [Compound 170]	> 5.82
CCN(CC1CCCN(CCc2cccc(OC)c2)C1)C(=O)c1ccccc1 (centres unmarked) [Compound 234]	< 5.00
CCN(CC1CCCN(CCc2cccc(OC)c2)C1)C(=O)c1cc2ccccc2s1 (centres unmarked) [Compound 235]	5.40 to 5.82
CCN(CC1CCCN(CC(C)(C)c2cccc(OC(F)F)c2)C1)C(=O)c1cc2cc(OC(F)F)ccc2[nH]1 (centres unmarked) [Compound 408]	> 5.82
CCN(CC1CCCN(C(C)(C)Cc2cccc(OC(F)F)c2)C1)C(=O)c1cc2cc(OC(F)F)ccc2[nH]1 (centres unmarked) [compound 315]	> 5.82
CCN(CC1CCCN(CCc2cccc(OC)c2)C1)C(=O)c1cc(C#N)c[nH]1 (centres unmarked) [Compound 242]	5.40 to 5.82
CC(C)(Cc1cccc(F)c1)N1CCCC(CN(CC(F)(F)F)C(=O)c2cc3ccccc3[nH]2)C1 (centres unmarked) [Compound 352]	> 5.82
CCN(CC1CCCNC1)C(=O)c1cc2ccccc2[nH]1 (centres unmarked) [Compound 413]	< 5.00
CCN(CC1CCCNC1)C(=O)c1cc2ccc(OC)cc2[nH]1 (centres unmarked) [compound 419]	< 5.00
CCN(CC1CCCNC1)C(=O)c1cc2cc(OC(F)F)ccc2[nH]1 (centres unmarked) [compound 425]	< 5.00
CCN(CC1CCCN(CCc2cccc(OC)c2)C1)C(=O)c1c[nH]c2ccccc12 (centres unmarked) [Compound 232]	> 5.82
CCN(CC1CCCN(CCc2cccc(OC)c2)C1)C(=O)c1ccc(C)[nH]1 (centres unmarked) [Compound 246]	5.40 to 5.82
CCN(CC1CCCN(C(C)(C)Cc2cccc(OC)c2)C1)C(=O)c1cc2ccccc2[nH]1 (centres unmarked) [compound 312]	5.40 to 5.82
CCN(CC1CCCNC1)C(=O)c1cc2cc(OC(F)(F)F)ccc2[nH]1 (centres unmarked) [compound 426]	< 5.00
CCN(CC1CCCN(CC(C)(C)c2cc3ccccc3o2)C1)C(=O)c1cc2ccccc2[nH]1 (centres unmarked) [Compound 409]	5.40 to 5.82
CCN(CC1CCCN(Cc2ccc(OC(F)F)cc2)C1)C(=O)c1cc2cc(OC(F)F)ccc2[nH]1 (centres unmarked) [Compound 178]	> 5.82
CCN(CC1CCCN(CCc2cccc(OC)c2)C1)C(=O)c1cc2ccccc2n1CC (centres unmarked) [Compound 238]	5.40 to 5.82
CCN(CC1CCCN(Cc2ccc(Cl)cc2)C1)C(=O)c1cc2c(Cl)cc(Cl)cc2[nH]1 (centres unmarked) [Compound 153]	5.40 to 5.82
CCN(CC1CCCNC1)C(=O)c1cc2ccc(Cl)cc2[nH]1 (centres unmarked) [compound 423]	> 5.82
CCN(CC1CCCN(CCc2cccc(OC)c2)C1)C(=O)c1ccco1 (centres unmarked) [Compound 247]	5.15 to 5.40
CCN(CC1CCCNC1)C(=O)c1cc2cccc(F)c2[nH]1 (centres unmarked) [compound 418]	< 5.00
CCN(CC1CCCN(CCc2cccc(OC)c2)C1)C(=O)c1ccc2ccccc2c1 (centres unmarked) [Compound 237]	5.40 to 5.82
CCN(CC1CCCN(CCc2cccc(OC)c2)C1)C(=O)c1cc(C)c[nH]1 (centres unmarked) [Compound 229]	5.40 to 5.82

Second part, the molecule after the results:

pIC50	Compound
> 5.82	CCN(CC1CCN(C(C)(C)c2cc3ccccc3o2)CC1)C(=O)c1cc2ccccc2[nH]1 [Compound 340]
< 5.00	CCN(CC1CCCN(Cc2ccc(-c3nnn[nH]3)cc2)C1)C(=O)c1cc2ccccc2[nH]1 (centres unmarked) [Compound 225]
5.40 to 5.82	CCN(CC1CCCN(Cc2ccc(OC)cc2)C1)C(=O)c1cc2ccccc2[nH]1 (centres unmarked) [Compound 137]
< 5.00	CCN(CC1CCN(C(C)(C)Cc2ccc(OC)cc2)CC1)C(=O)c1cc2ccccc2[nH]1 [Compound 344]
> 5.82	CCN(CC1CCN(C(C)(C)c2ccc(OC)cc2)CC1)C(=O)c1cc2ccccc2[nH]1 [Compound 358]
< 5.00	CCN(CC1CCCN(Cc2ccc(C(=O)OC)cc2)C1)C(=O)c1cc2ccccc2[nH]1 (centres unmarked) [Compound 212]
5.40 to 5.82	CCN(CC1CCN(CCc2cccc(OC)c2)CC1)C(=O)c1cc2ccccc2[nH]1 [compound 253]
5.40 to 5.82	CCN(CC1CCCN(CCc2ccccc2Cl)C1)C(=O)c1cc2ccccc2[nH]1 (centres unmarked) [Compound 139]
5.15 to 5.40	CCN(CC1CCCN(CCc2ccccc2OC)C1)C(=O)c1cc2ccccc2[nH]1 (centres unmarked) [Compound 124]
< 5.00	CCN(CC1CCN(Cc2ccc(OC(F)(F)F)cc2)CC1)C(=O)c1cc2cc(OC(F)(F)F)ccc2[nH]1 [compound 309]
> 5.82	CCN(CC1CCCN(Cc2cc3ccccc3o2)C1)C(=O)c1cc2ccccc2[nH]1 (centres unmarked) [Compound 206]
< 5.00	CCN(CC1CCN(C(C)(C)Cc2ccccc2)CC1)C(=O)c1cc2ccccc2[nH]1 [Compound 333]
5.40 to 5.82	CCN(CC1CCCN(Cc2ccccc2)C1)C(=O)c1cc2ccccc2[nH]1 (centres unmarked) [Compound 132]
5.00 to 5.15	CCN(CC1CCN(Cc2cc3ccccc3o2)CC1)C(=O)c1cc2ccccc2[nH]1 [Compound 327]
5.15 to 5.40	COc1cccc(CN2CCC(CN(C)C(=O)c3cc4ccccc4[nH]3)CC2)c1 [compound 257]
< 5.00	CN(CC1CCN(Cc2ccccc2Cl)CC1)C(=O)c1cc2ccccc2[nH]1 [compound 259]
5.40 to 5.82	CCN(CC1CCCN(Cc2ccccc2C#N)C1)C(=O)c1cc2ccccc2[nH]1 (centres unmarked) [Compound 130]
< 5.00	COc1ccc(CN2CCC(CNC(=O)c3cc4ccccc4[nH]3)CC2)cc1 [compound 274]
> 5.82	CCN(CC1CCN(C(C)(C)Cc2cccc(F)c2)CC1)C(=O)c1cc2ccccc2[nH]1 [Compound 330]
5.00 to 5.15	CCN(CC1CCCN(CCc2cc3ccccc3o2)C1)C(=O)c1cc2ccccc2[nH]1 (centres unmarked) [Compound 181]
5.40 to 5.82	CCN(CC1CCN(Cc2ccccc2F)CC1)C(=O)c1cc2ccccc2[nH]1 [compound 268]
5.40 to 5.82	COc1ccccc1CN1CCC(CNC(=O)c2cc3ccccc3[nH]2)CC1 [compound 273]

pIC50	Compound
> 5.82	CCN(CC1CCCN(Cc2ccc(Cl)cc2)C1)C(=O)c1cc2cc(OC)ccc2[nH]1 (centres unmarked) [Compound 148]
5.40 to 5.82	CCN(CC1CCN(C(C)(C)Cc2ccc(F)cc2)CC1)C(=O)c1cc2ccccc2[nH]1 [Compound 345]
> 5.82	CCN(CC1CCN(C2(Cc3cccc(OC)c3)CC2)CC1)C(=O)c1cc2ccccc2[nH]1 [Compound 360]
< 5.00	CC(C)N(CC1CCN(Cc2ccccc2F)CC1)C(=O)c1cc2ccccc2[nH]1 [compound 280]
> 5.82	CCN(CC1CCN(C2CCc3ccc(OC)cc3C2)CC1)C(=O)c1cc2ccccc2[nH]1 (centres unmarked) [Compound 329]
> 5.82	CCN(CC1CCN(Cc2ccc(OC)cc2)CC1)C(=O)c1cc2cc(OC)ccc2[nH]1 [compound 404]
5.15 to 5.40	O=C(NCC1CCN(Cc2ccccc2)CC1)c1cc2ccccc2[nH]1 [compound 295]
< 5.00	COc1ccccc1CN1CCC(CN(C(=O)c2cc3ccccc3[nH]2)C(C)C)CC1 [compound 282]
5.40 to 5.82	CCN(CC1CCCN(CCc2ccccc2F)C1)C(=O)c1cc2ccccc2[nH]1 (centres unmarked) [Compound 123]
> 5.82	CCN(CC1CCCN(CCc2cccc(F)c2)C1)C(=O)c1cc2ccccc2[nH]1 (centres unmarked) [Compound 140]
> 5.82	CCN(CC1CCCN(Cc2ccc(F)cc2)C1)C(=O)c1cc2ccccc2[nH]1 (centres unmarked) [Compound 135]
< 5.00	COc1cccc(CN2CCC(CN(C(=O)c3cc4ccccc4[nH]3)C(C)C)CC2)c1 [compound 279]
5.15 to 5.40	CCN(CC1CCCN(Cc2ccc(OC)cc2)C1)C(=O)c1cc2cccc(F)c2[nH]1 (centres unmarked) [Compound 158]
< 5.00	CCN(CC1CCCN(CCc2ccc(C#N)cc2)C1)C(=O)c1cc2ccccc2[nH]1 (centres unmarked) [Compound 142]
< 5.00	O=C(NCC1CCN(Cc2ccc(Cl)cc2)CC1)c1cc2ccccc2[nH]1 [compound 275]
< 5.00	CCN(CC1CCCN(Cc2ccccc2Cl)C1)C(=O)c1cc2ccccc2[nH]1 (centres unmarked) [Compound 129]
< 5.00	O=C(NCC1CCN(Cc2ccc(F)cc2)CC1)c1cc2ccccc2[nH]1 [compound 294]
5.40 to 5.82	CCN(CC1CCCN(Cc2ccc(Cl)cc2)C1)C(=O)c1cc2ccc(OC)cc2[nH]1 (centres unmarked) [Compound 159]
< 5.00	CN(CC1CCN(Cc2cccc(F)c2)CC1)C(=O)c1cc2ccccc2[nH]1 [compound 255]
> 5.82	CCN(CC1CCCN(Cc2cccc(OC)c2)C1)C(=O)c1cc2ccccc2[nH]1 (centres unmarked) [compound 122]
5.40 to 5.82	CCN(CC1CCN(Cc2ccccc2)CC1)C(=O)c1cc2ccccc2[nH]1 [compound 291]
< 5.00	CCN(CC1CCN(Cc2ccc(F)cc2)CC1)C(=O)c1cc2ccccc2[nH]1 [compound 290]

same assay, conditions: inhibition of TDP-43 aggregation; PC12 TDP-43^Q331K::eGFP, 1 hour pre-treatment, 15 μM sodium arsenite for 23 hours; 10-point dose response

Compound	pIC50
CCN(CC1CCCN(C(C)(C)Cc2cccc(OC(F)(F)F)c2)C1)C(=O)c1cc2cc(OC(F)(F)F)ccc2[nH]1 (centres unmarked) [compound 316]	5.15 to 5.40
CCN(CC1CCCN(C(C)(C)Cc2cccc(OC)c2)C1)C(=O)c1cc2cc(OC)ccc2[nH]1 (centres unmarked) [Compound 334]	> 5.82
CCN(CC1CCCN(C(C)(C)Cc2cccc(OC)c2)C1)C(=O)c1cc2ccccc2[nH]1 (centres unmarked) [Compound 331]	5.40 to 5.82
CCN(CC1CCCN(Cc2ccc(Cl)cc2)C1)C(=O)c1cc2ccc(Cl)cc2[nH]1 (centres unmarked) [Compound 167]	> 5.82

From patent publication US20180305334A1, “COMPOUNDS, COMPOSITIONS AND METHODS OF USE AGAINST STRESS GRANULES” (Aquinnah Pharmaceuticals, Inc., priority 2015, published 2018)
